Results taken from PubChem BioAssay AID489041 (Sanford-Burnham Center for Chemical Genomics, 2010).
Active and inactive are the calls of the source. No rule for the calls is given here.

System: HEK-293T NF-kB luciferase reporter counterscreen, luminescence
Experiment: inhibitors of HEK-293T NF-kB luciferase – HEK-293T cells, luminescence, counter-screen for T-cell antigen receptor NF-kB inhibitors, dose response (AID 489041)

**Q.** How did the IC50 turn out when O=C(Nc1ccc(S(=O)(=O)N2CCOCC2)cc1)c1ccc(CN2CCc3ccccc3C2)cc1 was run?
**A.** 1.29 µM

**Q.** How did the IC50 turn out when Cc1cc(O)c2c(c1O)C(=O)[C@]13C(=C2O)C(=O)[C@@H]2[C@@H](O)[C@H]1[C@@H]1[C@H](O)[C@H]3C(=O)C3=C(O)c4c(O)cc(C)c(O)c4C(=O)[C@]312 was run?
**A.** 11.4 µM

**Q.** Which IC50 does the source give for CC(C)CCOc1cccc(OCC(=O)Nc2ccncc2)c1 here?
**A.** 1.97 µM

**Q.** Which IC50 does the source give for Cc1cc(=O)oc2cc(OCC3CC(c4ccccc4Cl)=NO3)ccc12 (stereo unspecified) here?
**A.** 5.52 µM

**Q.** With COc1ccc(-c2ccc3oc(-c4ccc(OC)cc4)c(C#CCO)c3c2)cc1 as the compound, how does the IC50 read?
**A.** 14.2 µM

**Q.** How did the IC50 turn out when O=C(Nc1nc2ccc(S(=O)(=O)N3CCCC3)cc2s1)C1CCCCC1 was run?
**A.** 2.8 µM

**Q.** COC(=O)C1=C(CN2CCCc3ccccc32)NC(=O)NC1c1ccc(F)cc1 (stereo unspecified) was tested. Which IC50 did it give?
**A.** 5.33 µM

**Q.** Which IC50 does the source give for O=C(Sc1cccc2cccnc12)c1ccc(F)cc1 here?
**A.** 34.2 µM (inactive)

**Q.** CSc1nc(N(C)NC(=O)c2cccc(C)c2)c2ccccc2n1 was tested. Which IC50 did it give?
**A.** 4.16 µM

**Q.** For O=C(COc1ccccc1-c1ccccc1)N/N=C/c1cccc2ccccc12, which IC50 is on record?
**A.** 8 µM

**Q.** Which IC50 does the source give for O=C(Nc1ccc(N2CCCCC2)cc1)c1ccccn1 here?
**A.** 3.23 µM

**Q.** For COc1cccc(N2CCN(c3ncnc4c3cnn4-c3ccc(C)cc3C)CC2)c1, which IC50 is on record?
**A.** 2.07 µM

**Q.** How did the IC50 turn out when COc1ccc(OC)c(CCNC(=O)Cn2nc(C)c3c(C)n(-c4ccc(C)cc4)nc3c2=O)c1 was run?
**A.** 1.28 µM

**Q.** For COc1ccc(C2=Nn3c([n+](C)c4ccccc43)SC2)cc1, which IC50 is on record?
**A.** 2.63 µM

**Q.** Which IC50 does the source give for Cc1nnc(N/N=C/c2ccccn2)[nH]c1=O here?
**A.** > 80 µM (inactive)

**Q.** How did the IC50 turn out when CCc1c(C)nc2ncnn2c1NCCc1ccc(OC)cc1 was run?
**A.** 3.03 µM

**Q.** Which IC50 does the source give for COc1ccc(C(=O)c2ccc(N(C)C)cc2)c(OC)c1 here?
**A.** 71.1 µM (inactive)

**Q.** Which IC50 does the source give for C[C@]12CC[C@@H]3c4cc(O)c(O)cc4CC[C@H]3[C@@H]1CC[C@@H]2O here?
**A.** 45 µM (inactive)

**Q.** COc1ccc([N+](=O)[O-])cc1Nc1c2ccccc2nc2ccccc12 was tested. Which IC50 did it give?
**A.** 1.38 µM

**Q.** With COc1ccc(Cn2c(SCc3ccc(C)cc3)nc3cc(OC)c(OC)cc3c2=N)cc1Cl as the compound, how does the IC50 read?
**A.** > 80 µM (inactive)

**Q.** For COc1cc(/C=C/c2ccc3cccc(O)c3n2)cc(OC)c1OC, which IC50 is on record?
**A.** > 80 µM (inactive)

**Q.** With CC(=O)O[C@@]12CO[C@@H]1C[C@H](O)[C@@]1(C)C(=O)[C@H](O)C3=C(C)[C@@H](OC(=O)[C@H](O)[C@@H](NC(=O)c4ccccc4)c4ccccc4)C[C@@](O)([C@@H](OC(=O)c4ccccc4)C12)C3(C)C (stereo partly specified) as the compound, how does the IC50 read?
**A.** > 80 µM (inactive)

**Q.** CC(=O)Nc1ccc(S(=O)(=O)N2CCSc3ccccc32)cc1 was tested. Which IC50 did it give?
**A.** 21.3 µM (inactive)

**Q.** O=C(Nc1ccc(Oc2cccnc2)nc1)c1ccc(C(F)(F)F)cc1 was tested. Which IC50 did it give?
**A.** 1.52 µM

**Q.** O=C1c2cccc3cc([N+](=O)[O-])cc(c23)C(=O)N1CCN1CCCC1 was tested. Which IC50 did it give?
**A.** > 80 µM (inactive)

**Q.** With Cc1ccc(S(=O)(=O)/N=C2\C=C(Nc3ccc(O)cc3)C(=O)c3ccccc32)cc1 as the compound, how does the IC50 read?
**A.** 0.78 µM

**Q.** With CCN1/C(=C/C(C)=C/c2sc3ccccc3[n+]2CC)Sc2ccccc21 as the compound, how does the IC50 read?
**A.** 0.78 µM

**Q.** How did the IC50 turn out when Cc1cccc(N2CCN(C(=O)c3ccc(S(=O)(=O)N(C)c4ccccc4)cc3)CC2)c1C was run?
**A.** 10.5 µM

**Q.** For COc1cc2nc(CN3CC=C(c4ccccc4)CC3)[nH]c(=O)c2cc1OC, which IC50 is on record?
**A.** 2.5 µM

**Q.** With CCOC(=O)CC1CCCCN1C(=O)c1cc(COc2cccc3cnccc23)on1 (stereo unspecified) as the compound, how does the IC50 read?
**A.** 1.81 µM

**Q.** Which IC50 does the source give for COc1cc(C(=O)Nc2ccc3c(c2)ncn3C)cc(OC)c1OC here?
**A.** 14.7 µM

**Q.** Which IC50 does the source give for O=C(NNc1ccnc2cc(Cl)ccc12)C1CCCCC1 here?
**A.** 0.33 µM

**Q.** How did the IC50 turn out when COC(=O)c1ccccc1NC(=O)CSc1nc(-c2ccco2)cc(C(F)(F)F)n1 was run?
**A.** 7.95 µM

**Q.** How did the IC50 turn out when Cc1cc(-n2c(C)cc(C(=O)CSc3ncnc4ccccc34)c2C)no1 was run?
**A.** 3 µM

**Q.** Which IC50 does the source give for CC(C)Oc1ccccc1C1CC(=O)Nc2cc3c(cc21)OCCO3 (stereo unspecified) here?
**A.** 2.69 µM

**Q.** Cc1ccc(-c2nc(-c3ccccn3)no2)cc1 was tested. Which IC50 did it give?
**A.** 3.83 µM

**Q.** With Cn1nc([N+](=O)[O-])nc1Sc1nnc(-c2ccccc2)o1 as the compound, how does the IC50 read?
**A.** 37.5 µM (inactive)

**Q.** For Cc1ccc(C(=O)Nc2cnc3ccccc3c2)cc1, which IC50 is on record?
**A.** 0.83 µM

**Q.** For COC(=O)CCC(=O)NC(=S)Nc1sc(C)c(C)c1C(N)=O, which IC50 is on record?
**A.** 0.74 µM

**Q.** How did the IC50 turn out when CC1=Nc2ccccc2/C1=C\c1sc(Nc2ccc(C)cc2)nc1O was run?
**A.** 3.6 µM

**Q.** CN=c1scc(-c2cccs2)n1/N=C/c1ccccc1O was tested. Which IC50 did it give?
**A.** < 0.16 µM
